In brackets after ≈: the same amount, converted by molar mass. No end group written: not given here.
Columns and labels:
[1] = system: fresh mice erythrocytes; format: cell-based, mouse; conditions: 30 min, PBS pH 7.4
Source text: Peptide and different pH of culture medium prepared. The pH of BHI medium was adjusted by HCl and NaOH. All peptides, including lycosin- I, pHly-1, s-pHly-1 were synthesized on a Rink amide-AM resin using the SPPS
(9- fluorenyl-methoxycarbonyl solid-phase peptide synthesis) method as reported previously1. Then peptides were cleaved from the resin using TFA/1,2- ethanedithiol/thioanisole/anisole (90/5/3/2 (v/v)), precipitated in cold diethyl ether and the collected precipitate was dried by air -drying . The prepared peptides were purified by reverse phase- HPLC (RP-HPLC) and their molecular weights were determined by MALDI-TOF MS.
Hemolytic assay. Approximately 4 % (in volume) of the mouse erythrocyte s were prepared by diluting fresh erythrocytes to 25-fold dilution with PBS buffer (pH 7.4).
The stock peptide solution ([…]) diluted by PBS solution to reach various concentrations (200 μL) was placed in a 1.5 mL sterile microfuge tube, followed by the addition of 200 μ L o f erythrocyte suspension. The mixture was incubated at 37 °C for 30 min. Then, the mixture was centrifuged at 3,500 rpm for 5 min to collect the supernatant. Aliquots (100 μL) of the supernatant were removed to 96-well plates, and the absorbance was detected at 450 nm using a microplate reader (Multiskan Spectrum, BioTek Inc., USA). Untreated erythrocyte suspension in an equal volume of PBS solution and 0.1% Triton X-100 were used as the negative control and positive […]
Isolation and culture of clinical S.mutans strains. Ethical approval of the study and the written consent/permission forms were obtained from Institutional Review Board (IRB) at Hunan Normal University prior to the study. For each child, written permission form was reviewed and signed by their legal guardians. Plaque -biofilm samples were collected from patients, including 16 Middle-aged and young patients and 4 children (age between 48 and 72 months) diagnosed with severe early childhood caries (S-ECC) in Changsha Stomatological Hospital. […]

[2] = system: pepsin; experiment: Degradation by pepsin (RP-HPLC); format: in vitro ADME; conditions: peptide 100 µg/mL, pepsin 10 µg/mL, Tris buffer pH 4.0, 37 °C, 5 min, MALDI-TOF MS
Method: Figure 7 The biosafety of pHly-1 NPs to normal oral and gastric organoids. […] (B and C) The representative gastric organoid images (B) and oral organoid images (C) after 500 µM pHly-1 NPs or CHX treatment. (D and E) the viability of gastric (D) and oral (E) organoids after treatment with pHly-1 NPs or CHX was assessed by CellTiter-Blue cell viability assay. Scale bar, 100 µm. Each experiment was repeated 3 times. (F) RP-HPLC analysis of pHly-1 NPs degradation by pepsin. pHly-1 NPs (100 µg/mL) was incubated with pepsin (10 µg/mL) in Tris buffer (pH 4.0) at 37 °C for 5 min and submitted to RP-HPLC analysis. The HPLC fractions were analyzed by MALDI-TOF MS. The black arrow represents the intact peptide of pHly-1 NPs and the molecular weight is 2865.1 Da (Figure S14). After 5 min of pepsin hydrolysis, the molecular weight of the mainly peptide fragment is 1650.6 Da (Figure S14). All of the data are represented as average ± s.d.

[3] = system: S. mutans UA159 (ATCC 700610); experiment: Minimal inhibition concentration (MIC) determination, S. mutans UA159; format: cell-based; conditions: Streptococcus mutans, ATCC700610, BHI medium, 48 h, A600
Method: Minimal inhibition concentration (MIC) determination . S.mutans UA159 (ATCC 700610) and 20 clinical S.mutans strains were used. S.mutans UA159 was purchased from Shanghai Biofeng Biotechnology Co., LTD. These bacteria grown in brain heart infusion broth (BHI, Beijing Land Bridge, China) at 37 °C under anaerobic conditions.
Due to bacteria incubation under the condition of excessive acid for a long time will affect its vitality, therefore, pH 5.5 was choose as acidic condition for the MIC determination. Peptides and CHX were dissolved in BHI medium of different pHs (pH 5.5 and 7.0) using serial dilutions to obtain different diluted solutions. 2 µL of bacteria (1×10^7 CFU (colony forming units) in the logarithmic phase were added into each well of 96-well plates containing 200 µL different diluted solutions. Note that […]
the aggregate behavior of peptides. In order to avoid interfering with the MIC test, it is important to set up the control wells which only contain different concentrations of peptides in BHI medium of different pHs. The absorbance at 600 nm was detected with a microplate reader (Multiskan Spectrum, BioTek Inc., USA) after 48 h. The inhibition rate of drugs on bacteria was calculated based on the absorbance […]
The SYTO 9 / PI double staining and scanning electron microscopy (SEM) were also performed to evaluate the bacterial killing and bacterial membrane disruption. […]

Compound | hemolysis ([1]; 500 μM) | HC50 ([1]; 37 °C) [µM] | degradation by pepsin [2] | MIC ([3]; pH 5.5) [µM] | MIC ([3]; pH 7.0) [µM]
KIWFHAMHIIAHFIAHQHLHQHL-NH2 [pHly-1 NPs] | about 20% | > 500 | rapidly degraded | – | –
[H]/N=C(\N/C(=N/[H])NCCCCCCNC(=N)NC(=N)Nc1ccc(Cl)cc1)Nc1ccc(Cl)cc1 [CHX, chlorhexidine] | – | – | – | 0.5 (≈ 0.253 µg/mL) | 1 (≈ 0.505 µg/mL)
